Patent publication US7396624B2, “Electrophotographic photoreceptor containing naphthalenetetracarboxylic acid diimide derivatives and electrophotographic imaging apparatus employing the same” (Samsung Electronics Co., Ltd., priority 2004, dated 2008)

Experiment: Solubility Test (amount of methylene chloride to completely dissolve 1 g of compound)
Assay type: physicochemical
Settings: room temperature, methylene chloride added dropwise while stirring
Protocol: 1 g of the compound to be tested was added to a test tube at room temperature and methylene chloride was added dropwise while stirring to determine the amount of methylene chloride required to completely dissolve 1 g of the test compound.
For CC(C)N1C(=O)c2ccc3c4c(ccc(c24)C1=O)C(=O)N(C(C)C)C3=O [Comparative Compound (9a)], the “Amount of methylene chloride required to dissolve 1 g of a compound” value (from here on “Amount of methylene chloride required”) was 25 g. For CCC(CC)N1C(=O)c2ccc3c4c(ccc(c24)C1=O)C(=O)N(C(CC)CC)C3=O [Comparative Compound (10a)], the “Amount of methylene chloride required” value was 17.5 g. In the case of CC(c1ccccc1)N1C(=O)c2ccc3c4c(ccc(c24)C1=O)C(=O)N(C(C)c1ccccc1)C3=O (stereo not shown) [Compound (1)], the “Amount of methylene chloride required” value is reported as 3.5 g. In the case of CCC(c1ccccc1)N1C(=O)c2ccc3c4c(ccc(c24)C1=O)C(=O)N(C(CC)c1ccccc1)C3=O (stereo not shown) [Compound (2)], the “Amount of methylene chloride required” value is reported as 2 g.
